Data published in patent US10246469B2, “Biaryl kinase inhibitors” (BRISTOL-MYERS SQUIBB COMPANY, priority 2015, dated 2019).

Target: T1, GST-Xa-hAAK1 (Homo sapiens, UniProt Q2M2I8)
T1 construct: GST (N); Factor Xa cleavage site (Xa) (internal); made in house
Test: AAK1 Kinase Assay
Type: biochemical
Conditions: bacterially expressed GST-Xa-hAAK1 3.5 nM; ATP 22 μM; fluoresceinated peptide 1.5 μM; 3 hours at room temperature; Caliper LabChip 3000
Procedure: The assays were performed in U-bottom 384-well plates. The final assay volume was 30 μl prepared from 15 μl additions of enzyme and substrates (fluoresceinated peptide (5-FAM)-Aha-[…]-NH2 and ATP) and test compounds in assay buffer (10 mM Tris-HCL pH 7.4, 10 mM MgCl2, 0.01% Tween-20 and 1.0 mM DTT). The reactions were initiated by the combination of bacterially expressed, GST-Xa-hAAK1 with substrates and test compounds. The reactions were incubated at room temperature for 3 hours and terminated by adding 60 μl of 35 mM EDTA buffer to each sample. The reactions were analyzed on the Caliper LabChip 3000 (Caliper, Hopkinton, Mass.) by electrophoretic separation of the fluorescent substrate and phosphorylated product. […] The final concentration of reagents in the assays are ATP, 22 μM; (5-FAM)-Aha-[…]-NH2, 1.5 μM; GST-Xa-hAAK1, 3.5 nM; and DMSO, 1.6%. […] Compounds were dissolved at 10 mM in dimethylsulfoxide (DMSO) and evaluated at eleven concentrations. IC50 values were derived by non-linear regression analysis.

T1 sequence (Q2M2I8 whole entry): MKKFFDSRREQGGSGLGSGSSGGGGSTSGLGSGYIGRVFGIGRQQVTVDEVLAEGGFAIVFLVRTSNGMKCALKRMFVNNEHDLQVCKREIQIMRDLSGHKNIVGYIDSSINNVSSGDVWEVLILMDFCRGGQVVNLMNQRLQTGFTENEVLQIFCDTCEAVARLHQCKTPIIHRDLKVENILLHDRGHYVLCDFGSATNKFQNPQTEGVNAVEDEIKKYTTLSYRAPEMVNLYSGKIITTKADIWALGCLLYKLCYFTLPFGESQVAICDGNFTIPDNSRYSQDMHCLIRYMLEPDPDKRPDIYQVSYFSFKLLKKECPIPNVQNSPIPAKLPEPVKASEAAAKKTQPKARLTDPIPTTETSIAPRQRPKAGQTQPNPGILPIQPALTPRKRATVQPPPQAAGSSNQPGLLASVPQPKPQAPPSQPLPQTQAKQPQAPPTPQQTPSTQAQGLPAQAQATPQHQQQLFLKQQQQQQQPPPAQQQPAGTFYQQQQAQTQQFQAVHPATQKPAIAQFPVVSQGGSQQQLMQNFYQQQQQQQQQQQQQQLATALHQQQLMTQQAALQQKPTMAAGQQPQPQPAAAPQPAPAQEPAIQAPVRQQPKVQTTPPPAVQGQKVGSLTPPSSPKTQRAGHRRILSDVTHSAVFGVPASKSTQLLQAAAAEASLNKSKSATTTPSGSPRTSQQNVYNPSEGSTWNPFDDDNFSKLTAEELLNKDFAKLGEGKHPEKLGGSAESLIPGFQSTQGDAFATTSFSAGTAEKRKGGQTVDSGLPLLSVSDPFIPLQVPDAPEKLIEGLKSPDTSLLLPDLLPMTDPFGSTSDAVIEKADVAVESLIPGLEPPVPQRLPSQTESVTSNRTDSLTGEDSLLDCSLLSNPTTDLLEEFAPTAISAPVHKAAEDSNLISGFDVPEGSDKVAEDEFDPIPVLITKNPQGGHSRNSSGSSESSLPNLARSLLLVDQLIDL

Row | IC50 | SMILES
1 | 47 nM | CC(C)C[C@](C)(N)COc1ccc(-c2cc(Cl)nn3ccnc23)cc1C#N [Example 286, (S)-2-((2-amino-2,4-dimethylpentyl)oxy)-5-(6-chloroimidazo[1,2-b]pyridazin-8-yl)benzonitrile]
2 | 22 nM | CC(C)C[C@](C)(N)COc1ccc(-c2ccnc3[nH]c(N)nc23)cc1C#N [Example 254, (S)-2-((2-amino-2,4-dimethylpentyl)oxy)-5-(2-amino-3H-imidazo[4,5-b]pyridin-7-yl)benzonitrile]
3 | 6.4 nM | CC(C)C[C@](C)(N)COc1ccc(-c2ccnc(Nc3ccc4c(c3)OCO4)c2)cc1C(F)(F)F [Example 412, (S)-4-(4-((2-amino-2,4-dimethylpentyl)oxy)-3-(trifluoromethyl)phenyl)-N-(benzo[d][1,3]dioxol-5-yl) pyridin-2-amine]
4 | 4.5 nM | CC(C)C[C@](C)(N)COc1ccc(-c2ccnc3cc(C(F)(F)F)nn23)cc1C#N [Example 485, (S)-2-((2-amino-2,4-dimethylpentyl)oxy)-5-(2-(trifluoromethyl)pyrazolo[1,5-a]pyrimidin-7-yl)benzonitrile]
5 | 1.7 nM | Cc1cc(-c2ccnc(NC3CC3)n2)ccc1OC[C@@](C)(N)CC(C)C [Example 369, (S)-4-(4-((2-amino-2,4-dimethylpentyl)oxy)-3-methylphenyl)-N-cyclopropylpyrimidin-2-amine]
6 | 5.2 nM | CC(C)C[C@](C)(N)COc1ccc(-c2ccnc(NC3CCOC3)c2)cc1Cl (stereo partly drawn) [Example 345, 4-(4-(((S)-2-amino-2,4-dimethylpentyl)oxy)-3-chlorophenyl)-N-(tetrahydrofuran-3-yl)pyridin-2-amine]
7 | 67 nM | Cc1cc(-c2ccnc3c2C(=O)N(C)C3)ccc1OC[C@@](C)(N)CC(C)C [Example 430, (S)-4-(4-((2-amino-2,4-dimethylpentyl)oxy)-3-methylphenyl)-6-methyl-6,7-dihydro-5H-pyrrolo[3,4-b]pyridin-5-one]
8 | 79 nM | Cc1cc(-c2ccnc3ccnn23)cnc1OC[C@](C)(N)CC(C)C [Example 264, (R)-2,4-dimethyl-1-((3-methyl-5-(pyrazolo[1,5-a]pyrimidin-7-yl)pyridin-2-yl)oxy)pentan-2-amine]
9 | 8.4 nM | Cc1nc2c(-c3ccc(OC[C@@](C)(N)CC(C)C)c(C(F)(F)F)c3)ncnc2s1 [Example 270, (S)-2,4-dimethyl-1-(4-(2-methylthiazolo[5,4-d]pyrimidin-7-yl)-2-(trifluoromethyl)phenoxy)pentan-2-amine]
10 | 7.2 nM | CC(C)C[C@](C)(N)COc1ccc(-c2ccnc3c2C(=O)N(C)C3)cc1C(F)(F)F [Example 426, (S)-4-(4-((2-amino-2,4-dimethylpentyl)oxy)-3-(trifluoromethyl)phenyl)-6-methyl-6,7-dihydro-5H-pyrrolo [3,4-b]pyridin-5-one]
11 | 58 nM | CC(C)C[C@](C)(N)COc1ccc(-c2ccnc3c2cnn3C)cc1F [Example 289, (5)-1-(2-fluoro-4-(1-methyl-1H-pyrazolo[3,4-b]pyridin-4-yl)phenoxy)-2,4-dimethylpentan-2-amine]
12 | 112 nM | CC(C)C[C@](C)(N)COc1ccc(-c2cnn3cccnc23)cc1C(F)(F)F [Example 473, (S)-2,4-dimethyl-1-(4-(pyrazolo[1,5-a]pyrimidin-3-yl)-2-(trifluoromethyl)phenoxy)pentan-2-amine]
13 | 15 nM | CC(C)C[C@](C)(N)COc1ccc(-c2ccnn3cc(C4CC4)nc23)cc1F [Example 493, (S)-1-(4-(2-cyclopropylimidazo[1,2-b]pyridazin-8-yl)-2-fluorophenoxy)-2,4-dimethylpentan-2-amine]
14 | 0.48 nM | CC(C)C[C@](C)(N)COc1ccc(-c2ccnc(NC(=O)c3nccs3)c2)cc1Cl [Example 260, (S)—N-(4-(4-((2-amino-2,4-dimethylpentyl)oxy)-3-chlorophenyl)pyridin-2-yl)thiazole-2-carboxamide]
15 | 69 nM | CC(C)C[C@](C)(N)COc1ccc(-c2ccnn3cc(C(F)(F)F)nc23)cc1 [Example 501, (S)-2,4-dimethyl-1-(4-(2-(trifluoromethyl)imidazo[1,2-b]pyridazin-8-yl)phenoxy)pentan-2-amine]
16 | 62 nM | CC(C)C[C@](C)(N)COc1ccc(-c2cnc3cccnn23)cc1Cl [Example 503, (S)-1-(2-chloro-4-(imidazo [1,2-b]pyridazin-3-yl)phenoxy)-2,4-dimethylpentan-2-amine]
17 | 3.1 nM | CC(C)C[C@](C)(N)COc1ccc(-c2ccnc3c2C(=O)NC3)cc1C#N [Example 415, (S)-2-((2-amino-2,4-dimethylpentyl)oxy)-5-(5-oxo-6,7-dihydro-5H-pyrrolo[3,4-b]pyridin-4-yl)benzonitrile]

Row | IC50 | SMILES
18 | 55 nM | CC(C)C[C@@](C)(N)COc1ncc(-c2ccnc3ccnn23)cc1Cl [Example 265, (R)-1-((3-chloro-5-(pyrazolo[1,5-a]pyrimidin-7-yl)pyridin-2-yl)oxy)-2,4-dimethylpentan-2-amine]
19 | 54 nM | CC(C)C[C@](C)(N)COc1ccc(-c2ccnc(NC3CCOCC3)c2)cc1C#N [Example 468, (S)-2-(2-amino-2,4-dimethylpentyloxy)-5-(2-(tetrahydro-2H-pyran-4-ylamino)pyridin-4yl)benzonitrile]
20 | 1370 nM | CC(C)C[C@](C)(N)COc1cnc(-c2ccnc3ccnn23)cc1C#N [Example 486, (S)-5-((2-amino-2,4-dimethylpentyl)oxy)-2-(pyrazolo[1,5-a]pyrimidin-7-yl)isonicotinonitrile]
21 | 3.4 nM | CC(C)C[C@](C)(N)COc1ccc(-c2ccnn3ccnc23)cc1 [Example 281, (S)-1-(4-(imidazo[1,2-b]pyridazin-8-yl)phenoxy)-2,4-dimethylpentan-2-amine]
22 | 60 nM | CC(C)C[C@](C)(N)COc1ccc(-c2ncnc3c2ccn3C)cc1C(F)(F)F [Example 366, (S)-2,4-dimethyl-1-(4-(7-methyl-7H-pyrrolo[2,3-d]pyrimidin-4-yl)-2-(trifluoromethyl)phenoxy)pentan-2-amine]
23 | 495 nM | Cc1cc(-c2ccc(OC[C@@](C)(N)CC(C)C)c(C#N)c2)n2nc(C)cc2n1 [Example 464, (S)-2-((2-amino-2,4-dimethylpentyl)oxy)-5-(2,5-dimethylpyrazolo[1,5-a]pyrimidin-7-yl)benzonitrile]
24 | 14 nM | Cc1nc2c(-c3ccc(OC[C@@](C)(N)CC(C)C)c(C#N)c3)ccnc2[nH]1 [Example 293, (S)-2-((2-amino-2,4-dimethylpentyl)oxy)-5-(2-methyl-3H-imidazo[4,5-b]pyridin-7-yl)benzonitrile]
25 | 64 nM | CC(C)C[C@](C)(N)COc1ccc(-c2ccnc(NC3CCNCC3)c2)cc1C#N [Example 466, (S)-2-(2-amino-2,4-dimethylpentyloxy)-5-(2-(piperidin-4-ylamino)pyridin-4-yl) benzonitrile]
26 | 0.6 nM | CC(C)C[C@](C)(N)COc1ccc(-c2ccnc3[nH]ncc23)cc1Cl [Example 284, (S)-1-(2-chloro-4-(1H-pyrazolo[3,4-b]pyridin-4-yl)phenoxy)-2,4-dimethylpentan-2-amine]
27 | 1.4 nM | CC(C)C[C@](C)(N)COc1ccc(-c2ccnc3c2C(=O)NC3)cc1C(F)(F)F [Example 425, (S)-4-(4-((2-amino-2,4-dimethylpentyl)oxy)-3-(trifluoromethyl)phenyl)-6,7-dihydro-5H-pyrrolo [3,4-b]pyridin-5-one]
28 | 297 nM | CC(C)C[C@](C)(N)COc1ccc(-c2cc(Cl)nn3cc(C4CC4)nc23)cc1C(F)(F)F [Example 496, (S)-1-(4-(6-chloro-2-cyclopropylimidazo [1,2-b]pyridazin-8-yl)-2-(trifluoromethyl)phenoxy)-2,4-dimethylpentan-2-amine]
29 | 0.5 nM | CC(C)C[C@](C)(N)COc1ccc(-c2ccnc3cc[nH]c23)cc1C#N [Example 421, (S)-2-((2-amino-2,4-dimethylpentyl)oxy)-5-(1H-pyrrolo[3,2-b]pyridin-7-yl)benzonitrile]
30 | 0.82 nM | CC(C)C[C@](C)(N)COc1ccc(-c2ccnc(Nc3nccs3)c2)cc1C(F)(F)F [Example 256, (S)—N-(4-(4-((2-amino-2,4-dimethylpentyl)oxy)-3-(trifluoromethyl)phenyl)pyridin-2-yl)thiazol-2-amine]
31 | 222 nM | CC(C)C[C@](C)(N)COc1ccc(-c2cc(Cl)nn3cc(C4CC4)nc23)cc1C#N [Example 494, (5)-2-((2-amino-2,4-dimethylpentyl)oxy)-5-(6-chloro-2-cyclopropylimidazo[1,2-b]pyridazin-8-yl)benzonitrile]
32 | 1740 nM | Cc1cc(-c2ccnc3ccn(C)c23)ccc1OC[C@@](C)(N)CC(C)C [Example 427, (S)-2,4-dimethyl-1-(2-methyl-4-(1-methyl-1H-pyrrolo[3,2-b]pyridin-7-yl)phenoxy)pentan-2-amine]
33 | 99 nM | Cc1cc(-c2cnn3cccnc23)ccc1OC[C@@](C)(N)CC(C)C [Example 333]
34 | 7.4 nM | CC(C)C[C@](C)(N)COc1ccc(-c2ccnc(NC3CCCC3)n2)cc1C(F)(F)F [Example 377, (S)-4-(4-((2-amino-2,4-dimethylpentyl)oxy)-3-(trifluoromethyl)phenyl)-N-cyclopentylpyrimidin-2-amine]
